For data set [1], the system named is Human immunodeficiency virus 1. The experiment in a line: Antiviral activity against wild-type HIV1 NL4-3 VSV-G pseudotyped virus infected in human SUP-T1 cells assessed as inhibition of late stage viral production pretreated with viral infected SUP-T1 cells for 48 hrs followed by reinfection in TZM-bl cells by luciferase reporter gene assay. It counts as functional, organism-based. The following applies: Human immunodeficiency virus 1, NL4-3, SUP-T1. A general note: In a reporter assay the amount or activity of a reporter protein is the signal.

For data set [2], the system named is Human immunodeficiency virus 1. The experiment in a line: Antiviral activity against DRV-resistant HIV1 NL4-3 VSV-G pseudotyped virus infected in human SUP-T1 cells assessed as inhibition of late stage viral production pretreated for 48 hrs followed by viral infection and measured after 48 hrs by luciferase assay. It counts as functional, organism-based. The settings on record: Human immunodeficiency virus 1, NL4-3, SUP-T1.

Data set [3] has as its system Human immunodeficiency virus 1. The data set can be described thus: Antiviral activity against HIV1 NL4-3 VSV-G pseudotyped virus infected in human SUP-T1 cells assessed as inhibition of late stage viral production at 100 nM pretreated for 48 hrs followed by viral infection and measured after 48 hrs by luciferase assay relative to control. It counts as functional. The settings on record: Human immunodeficiency virus 1, NL4-3, SUP-T1, time 96 hrs.

Data set [4] deals with Human immunodeficiency virus type 1 protease (Human immunodeficiency virus 1, UniProt Q72874). The experiment in a line: Inhibition of HIV1 protease expressed in Escherichia coli using Arg-Glu (EDANS)-Ser-Gln-Asn-Tyr-Pro-Ile-Val-Gln-Lys(DABCYL)-Arg as substrate preincubated for 20 to 30 mins followed by substrate addition and measured for 10 mins by FRET assay.
Data set [5] concerns Human immunodeficiency virus 1. The experiment in a line: Antiviral activity against HIV1 NL4-3 VSV-G pseudotyped virus infected in human SUP-T1 cells assessed as inhibition of late stage viral production at 10 uM pretreated for 48 hrs followed by viral infection and measured after 48 hrs by luciferase assay relative to control. The class given is functional. The following applies: Human immunodeficiency virus 1, NL4-3, SUP-T1, time 96 hrs.

A further data set relates to HIV1 protease. The data set can be described thus: Selectivity index, ratio of CC50 for HEK293T cells to IC50 for inhibition of HIV1 protease expressed in Escherichia coli. The class given is toxicity. The following applies: human, read-out: Ratio CC50/IC50.
Data set [6] is described as follows: Cytotoxicity against HEK293T cells assessed as reduction in cell viability measured after 24 hrs by CCK8 assay. It counts as toxicity, cell-based, HEK-293T. The settings on record: human. In general terms: Tetrazolium assays rely on reduction of a dye to a coloured formazan, in cell work by metabolically active cells.
Data set [7] can be described thus: Selectivity ratio of EC50 for antiviral activity against DRV-resistant HIV1 NL4-3 VSV-G pseudotyped virus infected in human SUP-T1 cells to EC50 for antiviral activity against wild-type HIV1 NL4-3 VSV-G pseudotyped virus infected in human SUP-T1 cells. The class given is functional, Human immunodeficiency virus 1.
Data set [8] has as its system Human immunodeficiency virus 1. The data set can be described thus: Antiviral activity against HIV1 NL4-3 VSV-G pseudotyped virus infected in human SUP-T1 cells assessed as inhibition of early stage viral production at 10 uM measured after 48 hrs by luciferase assay relative to control. The class given is functional. The following applies: Human immunodeficiency virus 1, NL4-3, SUP-T1.

The record followed here is ChEMBL document CHEMBL5143688, “A kind of HIV-1 protease inhibitors containing phenols with antiviral activity against DRV-resistant variants” (Bioorg Med Chem, 2022).

Broadly, the EC50 is the concentration needed to bring the measured effect to its halfway point. Broadly, the inhibition is how much of the control response was suppressed. What is called IC50 is the concentration needed to halve the response being measured. Higher therefore signals lower potency. One may read the CC50 as the concentration at which the toxic effect on the cells reaches its halfway point.

As to `CC(C)CN(C[C@@H](O)[C@H](Cc1ccccc1)NC(=O)O[C@H]1CO[C@H]2OCC[C@H]21)S(=O)(=O)c1ccc(N)cc1`, the results for the 50% effective concentration (EC50) in data set [1] and in [2] were 2.5 nM and 100 nM, respectively. Further, the inhibition at 0.1 µM in [3] came to 100%.

As for `CC(C)CN(C[C@@H](O)[C@H](Cc1ccccc1)NC(=O)c1ccc(Cl)cc1O)S(=O)(=O)c1ccc([N+](=O)[O-])cc1`, in [4], the 50% inhibitory concentration (IC50) was 9.99 nM.

`CC(C)CN(C[C@@H](O)[C@H](Cc1ccccc1)NC(=O)c1ccc(Cl)cc1O)S(=O)(=O)c1ccc(F)cc1` had an IC50 in [4] of 6.94 nM. For the same compound, the inhibition at 10 µM in [5] came to 97.4%.

Compound `COc1ccc(C(=O)N[C@@H](Cc2ccccc2)[C@H](O)CN(CC(C)C)S(=O)(=O)c2ccc([N+](=O)[O-])cc2)c(O)c1` yielded an IC50 in data set [4] of 12.7 nM.

In the case of `CC(C)CN(C[C@@H](O)[C@H](Cc1ccccc1)NC(=O)c1cc(O)cc(O)c1)S(=O)(=O)c1ccc([N+](=O)[O-])cc1`, the selectivity ratio in the data set with HIV1 protease turned out to be 1.34e+06. Also, it took 0.065 nM to reach half-maximal inhibition in data set [4] (IC50). Besides, the CC50 at 24 h in data set [6] came out at 86900 nM.

As to `CC(C)CN(C[C@@H](O)[C@H](Cc1ccccc1)NC(=O)c1cc(O)c(O)c(O)c1)S(=O)(=O)c1ccc(C(F)(F)F)cc1`, the selectivity ratio in the data set with HIV1 protease was over 303000. The compound further showed an IC50 in data set [4] of 0.33 nM. Also, the CC50 at 24 h in [6] is over 100000 nM.

On to `CC(C)CN(C[C@@H](O)[C@H](Cc1ccccc1)NC(=O)c1cc(O)cc(O)c1)S(=O)(=O)c1ccc(F)cc1`, for which, in the data set with HIV1 protease, the selectivity ratio was over 4.76e+06. For the same compound, the EC50 amounted to 740 nM in data set [1] and 610 nM in data set [2]. For the same compound, in data set [4], 0.021 nM corresponded to half-maximal inhibition (IC50). Besides, the inhibition at 10 µM in data set [5] is 100%; in [8] it was 2.6%. Besides, the CC50 at 24 h in data set [6] is over 100000 nM. For the same compound, the “Ratio EC50” value in data set [7] amounted to 0.82.

For the compound `CC(C)CN(C[C@@H](O)[C@H](Cc1ccccc1)NC(=O)c1ccccc1O)S(=O)(=O)c1ccc(C(F)(F)F)cc1`, the half-maximal inhibitory concentration (IC50) in data set [4] stood at 23 nM.

With `COc1ccc(C(=O)N[C@@H](Cc2ccccc2)[C@H](O)CN(CC(C)C)S(=O)(=O)c2ccc(C(F)(F)F)cc2)c(O)c1`, the midpoint of inhibition in data set [4], the IC50, lay at 16.2 nM.

`COc1cc(C(=O)N[C@@H](Cc2ccccc2)[C@H](O)CN(CC(C)C)S(=O)(=O)c2ccc([N+](=O)[O-])cc2)cc(OC)c1O`: the selectivity ratio in the data set on HIV1 protease was over 127000. In data set [4], this compound displayed an IC50 of 0.79 nM. Also, in data set [6], the cytotoxic concentration (CC50) at 24 h is over 100000 nM.

As to `COc1cc(C(=O)N[C@@H](Cc2ccccc2)[C@H](O)CN(CC(C)C)S(=O)(=O)c2ccc(F)cc2)cc(OC)c1O`, the selectivity ratio with HIV1 protease is over 312000. In [4], the IC50 is 0.32 nM. Further, in data set [5], the inhibition at 10 µM was determined as 84.2%. Besides, the half-maximal cytotoxic concentration (CC50) at 24 h in data set [6] was over 100000 nM.

As for `CC(C)CN(C[C@@H](O)[C@H](Cc1ccccc1)NC(=O)c1ccc(O)cc1O)S(=O)(=O)c1ccc(F)cc1`, the selectivity ratio in the data set with HIV1 protease was over 159000. In [4], this compound showed an IC50 of 0.63 nM. The inhibition at 10 µM in data set [5] worked out at 99.4%. In addition, the CC50 at 24 h in data set [6] is over 100000 nM.

With `CC(C)CN(C[C@@H](O)[C@H](Cc1ccccc1)NC(=O)c1ccc(O)cc1O)S(=O)(=O)c1ccc(C(F)(F)F)cc1`, 8.82 nM corresponded to half-maximal inhibition in [4] (IC50).

As to `CC(C)CN(C[C@@H](O)[C@H](Cc1ccccc1)NC(=O)c1ccccc1O)S(=O)(=O)c1ccc([N+](=O)[O-])cc1`, the midpoint of inhibition in data set [4], the IC50, lay at 13.3 nM.

`COc1ccc(C(=O)N[C@@H](Cc2ccccc2)[C@H](O)CN(CC(C)C)S(=O)(=O)c2ccc(F)cc2)c(O)c1`: the IC50 in [4] was 8.34 nM. In addition, the inhibition at 10 µM in data set [5] was 82.2%.

For the compound `CC(C)CN(C[C@@H](O)[C@H](Cc1ccccc1)NC(=O)c1cc(O)cc(O)c1)S(=O)(=O)c1ccc(C(F)(F)F)cc1`, in the data set with HIV1 protease, the selectivity ratio was over 1.28e+06. Further, in data set [4], inhibition was half-maximal at 0.078 nM (IC50). Also, the CC50 at 24 h in data set [6] was over 100000 nM.

In the case of `CC(C)CN(C[C@@H](O)[C@H](Cc1ccccc1)NC(=O)c1ccc(O)cc1O)S(=O)(=O)c1ccc([N+](=O)[O-])cc1`, in the data set on HIV1 protease, the selectivity ratio was over 41300. In data set [4], this compound showed an IC50 of 2.42 nM. Also, the CC50 at 24 h in [6] is over 100000 nM.

Take `COc1cc(O)c(C(=O)N[C@@H](Cc2ccccc2)[C@H](O)CN(CC(C)C)S(=O)(=O)c2ccc(C(F)(F)F)cc2)cc1OC`: 11.4 nM corresponded to half-maximal inhibition in data set [4] (IC50).

Turning to `COc1cc(O)c(C(=O)N[C@@H](Cc2ccccc2)[C@H](O)CN(CC(C)C)S(=O)(=O)c2ccc(F)cc2)cc1OC`, the half-inhibitory concentration (IC50) in data set [4] was 11.5 nM.

`CC(C)CN(C[C@@H](O)[C@H](Cc1ccccc1)NC(=O)c1ccccc1O)S(=O)(=O)c1ccc(F)cc1`: the selectivity ratio in the data set with HIV1 protease is over 49000. The compound also gave a 50% inhibitory concentration (IC50) in data set [4] of 2.04 nM. Moreover, in data set [5], the inhibition at 10 µM worked out at 92.6%. Moreover, in [6], the CC50 at 24 h was over 100000 nM.

For the compound `CC(C)CN(C[C@@H](O)[C@H](Cc1ccccc1)NC(=O)c1ccc(O)c(O)c1)S(=O)(=O)c1ccc([N+](=O)[O-])cc1`, the selectivity ratio with HIV1 protease turned out to be 142000. Besides, the concentration for half-maximal inhibition (IC50) in data set [4] is 0.25 nM. The CC50 at 24 h in [6] was determined as 35600 nM.

On to `CC(C)CN(C[C@@H](O)[C@H](Cc1ccccc1)NC(=O)c1cc(O)c(O)c(O)c1)S(=O)(=O)c1ccc([N+](=O)[O-])cc1`, for which the selectivity ratio in the data set on HIV1 protease was over 137000. Besides, half-maximal inhibition in data set [4] (IC50) required 0.73 nM. Besides, the CC50 at 24 h in [6] is over 100000 nM.

With `CC(C)CN(C[C@@H](O)[C@H](Cc1ccccc1)NC(=O)c1ccc(O)c(O)c1)S(=O)(=O)c1ccc(F)cc1`, the selectivity ratio in the data set with HIV1 protease is 768000. Besides, the EC50 in [1] worked out at 360 nM; in [2] it was 2180 nM. Besides, half-maximal inhibition in data set [4] (IC50) required 0.075 nM. The inhibition at 10 µM in data set [5] worked out at 100%; in data set [8], 12.5%. For the same compound, the 50% cytotoxic concentration (CC50) at 24 h in data set [6] worked out at 57600 nM. The “Ratio EC50” value in data set [7] was 6.06.

Turning to `COc1cc(C(=O)N[C@@H](Cc2ccccc2)[C@H](O)CN(CC(C)C)S(=O)(=O)c2ccc(C(F)(F)F)cc2)cc(OC)c1O`, the half-maximal inhibitory concentration (IC50) in data set [4] was found to be 8.27 nM.

Consider `CC(C)CN(C[C@@H](O)[C@H](Cc1ccccc1)NC(=O)c1ccc(Cl)cc1O)S(=O)(=O)c1ccc(C(F)(F)F)cc1`, for which, in [4], inhibition was half-maximal at 6.23 nM (IC50).

`CC(C)CN(C[C@@H](O)[C@H](Cc1ccccc1)NC(=O)c1ccc(O)c(O)c1)S(=O)(=O)c1ccc(C(F)(F)F)cc1`: the selectivity ratio in the data set on HIV1 protease amounted to 496000. For the same compound, the IC50 in data set [4] amounted to 0.077 nM. Further, in [6], the half-maximal cytotoxic concentration (CC50) at 24 h was found to be 38200 nM.

In [4], `COc1cc(O)c(C(=O)N[C@@H](Cc2ccccc2)[C@H](O)CN(CC(C)C)S(=O)(=O)c2ccc([N+](=O)[O-])cc2)cc1OC` gave an IC50 of 13.7 nM.
